Assay results as given in patent US6458776B1, “5-ASA derivatives having anti-inflammatory and antibiotic activity and methods of treating diseases therewith” (Nobex Corporation, priority 2000, dated 2002).

Assays:
[1] = parameters: species or system rats; details: rat, 100 mg/kg
Description: 5-[4-(3-Carboxy-propionylsulfamoyl)-phenylazo]-2-hydroxy-benzoic acid (1), a compound of the present invention, and sulfasalazine (used as a control; not part of the present invention) were orally dosed to rats. The degradation and the generation of their metabolites after the oral dosing were measured to be able to confirm that (1) undergoes bacterial azo reduction and yields its metabolites, 5-aminosalicylic acid (5-ASA) and C4 sulfanomide.
This experiment was performed to confirm that (1) undergoes a bacterial reduction process and yields its metabolites in in-vivo metabolism. The quantification of its metabolites was also carried out. Sulfasalazine was used as a control since the same azo bond cleavage by bacteria occurs with it, which results in 5-aminosalicylic acid and sulfapyridine as its metabolites.
A total of 7 rats were used for the experiment and methylcellulose was used as a vehicle. The dosage amount was 100 mg/kg per rat. Three rats were dosed with (1) and the other three rats were dosed with sulfasalazine. One rat was used as a control and dosed with methylcellulose. Both urine and feces were collected over 2 days and analyzed by […].
Urine was collected each day and 300 μL of aliquot from each sample was centrifuged for 10 minutes at 5000 g. 80 μL of supernatant was injected for analysis. Feces was also collected, each day and homogenized with a 1:1 mixture of water and acetonitrile. This mixture was then centrifuged for 20 minutes at 5000 g. 80 μL of supernatant was injected for analysis.
A Waters 2690 HPLC was used for sample analysis as follows:
Mobile phase programming: Gradient
Mobile phase: A=Water+0.1% TFA B=Acetonitrile+0.1% TFA
Column: Phenomenex Max RP, 80 Å, 4.6 mm×250 mm
PDA settings: Collected spectrum: 210-400nm Extracted chromatogram: 280 and/or other
Run time/sample: Approximately 50 min.

Compound | melting point [°C] | degradation after oral dosing ([1]; in vivo) | compounds detected, day 2 collection ([1]; in vivo, po) | metabolites detected in feces, day 1 collection ([1]; in vivo, po) | metabolites detected in urine ([1]; in vivo, po) | parent compound detected in feces ([1]; in vivo, po) | parent compound detected in urine ([1]; in vivo, po) | azo reduction in vivo ([1]; po) | generation of sulfapyridine ([1]; in vivo, po)
O=C(O)CCC(=O)NS(=O)(=O)c1ccc(N=Nc2ccc(O)c(C(=O)O)c2)cc1 [(1), 5-[4-(3-Carboxy-propionylsulfamoyl)-phenylazo]-2-hydroxy-benzoic acid] | 192 | degraded and its metabolites were produced as expected | No compounds were detected | acetylated 5-ASA and C4 sulfanomide were detected | none of its metabolites were detected | not detected | only a very small amount | undergo azo reduction | –
O=C(O)CC(=O)NS(=O)(=O)c1ccc(N=Nc2ccc(O)c(C(=O)O)c2)cc1 [Example 3, 5-[4-(2-Carboxy-Acetylsulfamoyl)-Phenylazo]-2-Hydroxy-Benzoic Acid] | 178 | – | – | – | – | – | – | – | –
O=C(O)c1cc(/N=N/c2ccc(S(=O)(=O)Nc3ccccn3)cc2)ccc1O [Sulfasalazine, sulfasalazine, reference compound] | – | also degraded | No compounds were detected | Most rats showed acetylated 5-ASA | – | – | – | undergo azo reduction | only one rat showed the generation of sulfapyridine
